Assay results from paper PMC9897788, “Design, synthesis and cytotoxic evaluation of novel bis-thiazole derivatives as preferential Pim1 kinase inhibitors with in vivo and in silico study” (Journal of Enzyme Inhibition and Medicinal Chemistry, 2023).

Key:
A549/ATCC = assay: NCI 60 cell one-dose screening (SRB); type: cell-based; settings: Homo sapiens, Non-Small Cell Lung Cancer, single dose 10 µM, 48 h, read-out: Percentage of cellular growth inhibition
Procedure, shortened: (§1)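 DTP/NCI one-dose protocol: compound at 10 µM, 48 h, 37 °C, 5% CO2. Adherent lines fixed in 10% TCA, suspension lines in 16% TCA, then SRB-stained and read at 515 nm; data expressed as 100 minus percent growth.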

CAKI-1 = assay: NCI 60 cell one-dose screening (SRB); type: cell-based; settings: Homo sapiens; CAKI-1, Renal Cancer; single dose 10 µM, 48 h; read-out: Percentage of cellular growth inhibition
Procedure, shortened: as §1

COLO 205 = assay: NCI 60 cell one-dose screening (SRB); type: cell-based; settings: Homo sapiens; COLO 205, Colon Cancer; single dose 10 µM, 48 h; read-out: Percentage of cellular growth inhibition
Procedure, shortened: as §1

HCT-116 = assay: NCI 60 cell one-dose screening (SRB); type: cell-based; settings: Homo sapiens; HCT-116, Colon Cancer; single dose 10 µM, 48 h; read-out: Percentage of cellular growth inhibition
Procedure, shortened: as §1

K-562 = assay: NCI 60 cell one-dose screening (SRB); type: cell-based; settings: Homo sapiens, K562; K-562, Leukemia; single dose 10 µM, 48 h; read-out: Percentage of cellular growth inhibition
Procedure, shortened: as §1

LOX IMVI = assay: NCI 60 cell one-dose screening (SRB); type: cell-based; settings: Homo sapiens, Melanoma, single dose 10 µM, 48 h, read-out: Percentage of cellular growth inhibition
Procedure, shortened: as §1

MALME-3M = assay: NCI 60 cell one-dose screening (SRB); type: cell-based; settings: Homo sapiens, Melanoma, single dose 10 µM, 48 h, read-out: Percentage of cellular growth inhibition
Procedure, shortened: as §1

NCI-H23 = assay: NCI 60 cell one-dose screening (SRB); type: cell-based; settings: Homo sapiens; NCI-H23, Non-Small Cell Lung Cancer; single dose 10 µM, 48 h; read-out: Percentage of cellular growth inhibition
Procedure, shortened: as §1

NCI-H522 = assay: NCI 60 cell one-dose screening (SRB); type: cell-based; settings: Homo sapiens; NCI-H522, Non-Small Cell Lung Cancer; single dose 10 µM, 48 h; read-out: Percentage of cellular growth inhibition
Procedure, shortened: as §1

OVCAR-8 = assay: NCI 60 cell one-dose screening (SRB); type: cell-based; settings: Homo sapiens; OVCAR-8, Ovarian Cancer; single dose 10 µM, 48 h; read-out: Percentage of cellular growth inhibition
Procedure, shortened: as §1

PC-3 = assay: NCI 60 cell one-dose screening (SRB); type: cell-based; settings: Homo sapiens; PC-3, Prostate Cancer; single dose 10 µM, 48 h; read-out: Percentage of cellular growth inhibition
Procedure, shortened: as §1

SF-295 = assay: NCI 60 cell one-dose screening (SRB); type: cell-based; settings: Homo sapiens; SF-295, CNS Cancer; single dose 10 µM, 48 h; read-out: Percentage of cellular growth inhibition
Procedure, shortened: as §1

SK-MEL-5 = assay: NCI 60 cell one-dose screening (SRB); type: cell-based; settings: Homo sapiens; SK-MEL-5, Melanoma; single dose 10 µM, 48 h; read-out: Percentage of cellular growth inhibition
Procedure, shortened: as §1

SNB-75 = assay: NCI 60 cell one-dose screening (SRB); type: cell-based; settings: Homo sapiens; SNB-75, CNS Cancer; single dose 10 µM, 48 h; read-out: Percentage of cellular growth inhibition
Procedure, shortened: as §1

SR = assay: NCI 60 cell one-dose screening (SRB); type: cell-based; settings: Homo sapiens, Leukemia, single dose 10 µM, 48 h, read-out: Percentage of cellular growth inhibition
Procedure, shortened: as §1

T-47D = assay: NCI 60 cell one-dose screening (SRB); type: cell-based; settings: Homo sapiens, T47D, 48 h, Breast Cancer, single dose 10 µM, read-out: Percentage of cellular growth inhibition
Procedure, shortened: as §1

U251 = assay: NCI 60 cell one-dose screening (SRB); type: cell-based; settings: Homo sapiens, U-251; U251, CNS Cancer; single dose 10 µM, 48 h; read-out: Percentage of cellular growth inhibition
Procedure, shortened: as §1

[1] = tested on: Breast T47D cancer cell line; assay: In vitro inhibition concentration of breast T47D cancer cell line; type: cell-based; settings: Homo sapiens
Protocol: Cells were seeded and treated with a range of inhibitors concentration 39–10,000 nM after 24 h relative to DMSO. […]

OVCAR-3 = assay: NCI 60 cell one-dose screening (SRB); type: cell-based; settings: Homo sapiens; OVCAR-3, Ovarian Cancer; single dose 10 µM, 48 h; read-out: Percentage of cellular growth inhibition
Procedure, shortened: as §1

SK-MEL-2 = assay: NCI 60 cell one-dose screening (SRB); type: cell-based; settings: Homo sapiens; SK-MEL-2, Melanoma; single dose 10 µM, 48 h; read-out: Percentage of cellular growth inhibition
Procedure, shortened: as §1

SMILES	inhibition at 10 µM (A549/ATCC) [%]	inhibition at 10 µM (CAKI-1) [%]	inhibition at 10 µM (COLO 205) [%]	inhibition at 10 µM (HCT-116) [%]	inhibition at 10 µM (K-562) [%]	inhibition at 10 µM (LOX IMVI) [%]	inhibition at 10 µM (MALME-3M) [%]	inhibition at 10 µM (NCI-H23) [%]	inhibition at 10 µM (NCI-H522) [%]	inhibition at 10 µM (OVCAR-8) [%]	inhibition at 10 µM (PC-3) [%]	inhibition at 10 µM (SF-295) [%]	inhibition at 10 µM (SK-MEL-5) [%]	inhibition at 10 µM (SNB-75) [%]	inhibition at 10 µM (SR) [%]	inhibition at 10 µM (T-47D) [%]	inhibition at 10 µM (U251) [%]	IC50 ([1]; 48 h) [µM]	IC50 ([1]; 96 h) [µM]	melting point [°C]	also measured
Cc1csc(Nc2cccc(Nc3nc(C)cs3)c2)n1 [3a, N^1,N^3-bis(4-methylthiazol-2-yl)benzene-1,3-diamine]	-3.9	23.7	-3.8	4.8	17.1	25.5	-18.3	21.2	39.3	21.2	20.2	9.5	6.2	1.6	17.3	36.8	3.5	7.82	2.86	137 to 139	
CC(=O)c1sc(Nc2cccc(Nc3nc(C)c(C(C)=O)s3)c2)nc1C [3b, 1,1’-(2,2’-(1,3-Phenylenebis(azanediyl))bis(4-methylthiazole-5,2-diyl))diethanone]	34.2	71.9	22.3	55.8	59.1	51.9	30.2	36.8	53.8	56.6	48.7	13.5	44.2	37.1	61.5		34.3	5.77	1.46		
CCOC(=O)c1sc(Nc2cccc(Nc3nc(C)c(C(=O)OCC)s3)c2)nc1C [3c, Diethyl 2,2’-(1,3-phenylenebis(azanediyl))bis(4-methylthiazole-5-carboxylate)]	12	21.9	12.8	43.5	39.9	25.5	15.2	41.6	26.7	17.3	22.9	33.8	55.1	2.6	36.1	63.9	16.7			107 to 108	
Cc1nc(Nc2cccc(Nc3nc(C)c(N=Nc4ccccc4)s3)c2)sc1N=Nc1ccccc1 [5a, N^1,N^3-bis(4-methyl-5-(phenyldiazenyl)thiazol-2-yl)benzene-1,3-diamine]	36.4	54.8	-4.9	14.1	32.9		-7.7	14.7	30.7	33.4	-3.3	13.6	8.5	38.4		48	30.1	10.4	4.35	115 to 116	inhibition at 10 µM (OVCAR-3): 26%; inhibition at 10 µM (SK-MEL-2): -6.7%
CCOc1ccc(/N=N/c2sc(Nc3cccc(Nc4nc(C)c(/N=N/c5ccc(OCC)cc5)s4)c3)nc2C)cc1 [5b, N^1,N^3-bis(5-((4-ethoxyphenyl)diazinyl)-4-methylthiazol-2-yl)benzene-1,3-diamine]	12.5	8.3	-5.1	3.8	-0.4	2.6	-6.9	10.6	12.9	-4	6.2	4.4	0.8	7.8	-15.5	17.1	3.3			116 to 118	
c1ccc(-c2csc(Nc3cccc(Nc4nc(-c5ccccc5)cs4)c3)n2)cc1 [6a, N^1,N^3-bis(4-phenylthiazol-2-yl)benzene-1,3-diamine]	55.8	65.1	16.5	60	73.4		47.2	63.2	88.6	60.1	67.9	62.4	79	51.4			48.8	6.58	1.78	92 to 94	inhibition at 10 µM (OVCAR-3): 46.8%; inhibition at 10 µM (SK-MEL-2): 35.1%
Clc1ccc(-c2csc(Nc3cccc(Nc4nc(-c5ccc(Cl)cc5)cs4)c3)n2)cc1 [6c, N^1,N^3-bis(4–(4-chlorophenyl)thiazol-2-yl)benzene-1,3-diamine]	6.7	43	-7.3	38.5	5.8	7.3	-22.4	10.1	13.2	7.7	22.2	4	2.9	22.5	3.9	18.3	2.2	27.3	1.85	100 to 101	
NC(=S)Nc1cccc(NC(N)=S)c1 [compound 2, 1,1′-(1,3-phenylene)bis(thiourea)]	6.1	20.3	-36.7	-7	90.7		15.7	1.5	2.8	6	-2.4	9.8	8.6	2.4		13.2	11.2				inhibition at 10 µM (OVCAR-3): 11.5%; inhibition at 10 µM (SK-MEL-2): -11.7%
S=C(Nc1ccccc1)Nc1cccc(NC(=S)Nc2ccccc2)c1 [compound 7, 1,1′-(1,3-phenylene)bis(3-phenylthiourea)]	0.1	10.9	-37.6	-11.8	9.7		10.8	-5.7	-6.3	4	-24	1.2	1.5	7.9		6.3	-1.4				inhibition at 10 µM (OVCAR-3): -6.1%; inhibition at 10 µM (SK-MEL-2): -35.3%
